# Results taken from patent publication EP1379634B1 (THE UNIVERSITY OF GEORGIA RESEARCH FOUNDATION, INC., priority 2001, dated 2002).
# Residues, ends and D or L forms follow the SMILES beside them. *: point of attachment. AFC = O=c1cc(C(F)(F)F)c2ccc(N*)cc2o1; Cbz = O=C(OCc1ccccc1)*; CH2F = FC*
# Key:
# Taenia solium crude mix = assay: Substrate cleavage screen of AFC-linked peptides (Step II), crude mix; type: biochemical; settings: 0.4 M Citrate, pH 4.9, 18 h, 37 °C
# Experimental: (§1) In this step, the most efficacious substrate for detection of the cysteine protease (high Kcat substrate) was determined in vitro along with those substrates which were not well cleaved (low kcat substrates). From this point forward, the following conditions refer to all assays: "assay buffer" refers to 0.4 M Citrate, pH 4.9 (the pH optima of the protease). Incubation time was 18 hours at 37°C. These conditions were determined by our preliminary data to be best for kinetic evaluation of the protease. […] The experiments were conducted in 6X50 […] Borosilicate mini-culture tubes (Fisher Scientific), and a fluorometer (Turner) was employed for detection of AFC cleavage.
# In order to prepare the Taenia solium "crude mix", dry frozen Taenia solium cysts were obtained from 6-12 month old cysticercotic pigs from villages in an endemic area of porcine cysticercosis in Mexico. Metacestodes were carefully dissected from the parasitized tissues, washed three times with PBS, and lyophilized. Parasite extracts were prepared by suspending 0.1 grams of dry frozen cysts in 10 ml of extraction buffer (0.4 M citrate, pH 4.9) at room temperature. The cysts were vortexed for three five-minute intervals with intermittent incubations (5 min) at 4 °C. Particulate material was removed by centrifugation (20,000 x g, 120 min) and the resulting soluble fraction filtered ([…]). In assay buffers, the detectable amount of the crude mix, as described above, was employed and incubated with the target substrates.
# (§2) Vmax for the cleavage of substrates by the purified target protease and Vmax for substrates cleaved by the crude mix protease were each calculated using conventional kinetic modeling calculations already described in the art.
# [1] = system: purified Taenia solium cysteine protease; assay: Substrate cleavage screen of AFC-linked peptides (Step II), purified protease; type: biochemical; settings: 0.4 M Citrate, pH 4.9, 0.01 M cysteine, 18 h, 37 °C
# Experimental: as §1
# Since the full 8,420 amino acid possibilities for cleavage were not available, representative substrates were employed. […] In order to choose this subset, representative amino acids (i.e., selected from the categories of acidic, basic, nonpolar, uncharged) were chosen so as to create as many categories of motifs as feasible for the P3-P1 positions with a set of 67 small peptides (see lists at Fig. 4a and Fig. 4b). The target cysteine protease from Taenia solium was isolated using the purification methods described previously in the patent WO 00/63350.
# Approximately 1 ug (or a proteolytically detectable amount) of the purified target cysteine protease was incubated individually, with 1 ug of each of the available substrates in 500 uL of assay buffer. During this setup, the substrate was pre-incubated in the assay buffer for a short period of time (20 minutes) in order to reach an equilibrated status before the addition of the protease. Cleavage assessments were based upon the property of the protease to cleave synthetic peptide substrates linked at the C-terminus to 7-Amino-4-Trifluoromethyl Coumarin (AFC) as previously described. AFC linked tripeptides, dipeptides, and monopeptides, (with a variety of permutations at P3-P1) were available from Enzyme Systems Products (Livermore, CA), and were used as the source of the subset. Following incubation of enzyme preparations overnight (18 h, 37 °C) with peptide in assay buffer (Citrate, pH 4.9, supplemented with 0.01 M cysteine), free AFC concentrations were measured fluorometrically (excitation 405 nm, emission 505 nm). The proteolytic cleavage released the AFC group, which was measurable as a free molecule by a standard fluorometer and converted into molar quantities, based upon a previously established standard curve. The simplicity of AFC detection by the fluorometer was a key factor which expedited and simplified the procedures.
# In the assay, 1 ug of the purified Taenia cysteine protease was added to a saturating amount of Z-Phe-Arg-AFC (4X10^-5 M) in assay buffer. The experiment was conducted in triplicate and repeated at least 5 times until we were certain that variability in AFC cleavage was not statistically significant.
# as §2
# [2] = system: purified Taenia solium cysteine protease; assay: Protease inactivator inhibition assay against cocktail, EC100 and Ki (Step VII); type: biochemical; settings: for ranking by EC100: dilution study, nanomolar levels; for % Inhibition of T. solium CP in vitro: concentration not stated in Table 4
# Source text: Once the protease inactivators were synthesized in the organic laboratory, they were to be tested for the lowest efficacious concentrations at which they induced 100% inhibition of the target protease (EC100). The top percent cocktail that was employed in the final vehicle selection step of Step III was employed as the source of competition for the inhibitors. In this case, this was the 7.9% cocktail that was comprised of Z-FR-AFC, Z-FAR-AFC, Z-AP-AFC, Z-AAK-AFC, and Z-VLR-AFC. The final result would be a ranking of transition state candidate protease inactivators with a high ranking directly correlating to a low EC100 value. The following steps describe the assay: • Step A: Initial Screening. To set up the test control, each protease inactivator was first incubated with the 5% cocktail (which provided the final differentiation of vehicles in Step III). To begin with, the protease inactivator was incubated at a concentration of 3 X 10^-9M in 500 ul of assay buffer (0.2 M Citrate, pH 4.9, supplemented with 10mM L-cysteine). This concentration was determined by a series of inhibitor dilutions to be the best inhibitor concentration at which a differentiation in inhibitor potential could be noted. Next, a concentration equal to 4 X 10^-5M for each of the individual cocktail components, was added to the mix. The components were allowed to equilibrate for a period of 30 minutes. Finally, active purified enzyme was added to the tubes at a concentration which was always at least 50 times less than the concentration of the lowest concentration in the mix (so as to provide saturating conditions.) This concentration varied from purification to purification, and the amount that was added depended upon the yield and specific activity of the purified protease. Positive controls were set up similarly as described for test controls, except that solvent was added in substitution for the protease inactivator (in a volume equal to the […] volume addition). All of the protease inactivators could be dissolved in dimethylsulfoxide (DMSO), and therefore, this was the solvent of choice. Negative controls were set up by adding the protease inactivator and the cocktail substrates in a tube, without the protease. All potential non-proteolytic induced liberation of AFC was therefore controlled for in this tube. All controls were set up in triplicate, and experiments repeated a minimum of five times. The assays were incubated at 37°C, overnight. Percent inhibition was calculated as: %Inhibition = ((AFC positive for "SI"−AFC negative for "SI")−(AFC test−AFC negative for "SI"))/(AFC positive for "SI"−AFC negative for "SI") × 100 [formula] • Step B: Inhibitor Dilution Studies and formation of a ranked list of protease inactivators based upon EC100 values. […] Because of this, a dilution study was required in order to determine a viable ranking. Thus, the concentration of each of the protease inactivators was lowered with a dose response setup until the most efficacious concentration for 100% inhibition (EC100) could be determined. The inhibitors had to be diluted to nanomolar levels in order to establish a differentiable EC100 pattern. The final result of the assay was a ranked candidate list of protease inactivators. A lower EC100 was attributable to a higher ranking and vice-versa. • Step C: Determination of Inhibitor Ki and mode of inhibition, and re-ranking of EC100 list with inhibitor Ki. Ki of each of the top ranked protease inactivators, based upon low EC100 values, was assessed next for the top 5 EC100 inhibitors.
# In order to determine Ki, all of the high Vmax cocktail substrates were employed for Ki determination (since Ki of the inhibitor for the enzyme is the same regardless of the substrate). To insure the highest accuracy, Ki was to be determined upon a minimum of at least three of the high Kcat substrates. Nonlinear fitting and the Dixon plot were both employed to determine Ki of the top ranked protease inactivators. […]
# T. solium (cysteine) = assay: Selectivity test (Steps VI and IX), T. solium cysteine protease; type: biochemical, Taenia solium; settings: inhibitor 3 X 10^-10 M
# Experimental: (§3) In order to perform the assay, the vehicle (for Step VI) or inhibitor (for Step IX) were incubated with the appropriate substrate in the correct assay buffer and allowed to equilibrate. Subsequently, the protease was added, and the assay was allowed to incubate for an appropriate time. The concentrations used in this experiment were as follows: Vehicle was set up at 4 X 10^-5 M in final assay buffer; Inhibitor was set up at 3 X 10^-10 M in the final assay buffer. Preferably the dosages employed should be the minimal amount of vehicle or inhibitor necessary to induce inhibition. […] Substrates were set up based upon the preferred substrate for cleavage of the particular enzyme.
# (§4) Positive controls were set up similarly as described for test controls, except that a solvent blank was added in substitution for the inhibitor or vehicle (in a volume equal to the volume of inhibitor or vehicle addition). All of the inhibitors and vehicles could be dissolved in dimethylsulfoxide (DMSO), and therefore, this was the solvent of choice. Negative controls were set up by adding the inhibitor or vehicle and the preferred substrates in a tube without the protease. All potential non-proteolytic liberation of AFC was therefore controlled for in this tube.
# (§5) All controls were set up in triplicate, and experiments were repeated a minimum of five times.
# (§6) Percent inhibition was calculated as: %Inhibition = ((AFC positive for "SI"−AFC negative for "SI")−(AFC test−AFC negative for "SI"))/(AFC positive for "SI"−AFC negative for "SI") × 100 [formula]
# (§7) In this preliminary test, we employed the following human-derived enzymes (with indicated mechanistic class in parentheses): Cathepsin B (cysteine), Cathepsin L (cysteine), Cathepsin H (cysteine), Cathepsin D (aspartic), Trypsin (serine), the purified Taenia solium cysteine protease, and the Taenia solium crude mix. Cathepsin B was prepared in an assay buffer of 10 mM L-cysteine in 0.4 M Citrate buffer, pH 6.1, using Z-ARR-AFC as the cleavage substrate. Cathepsin L was prepared in an assay buffer of 10 mM L-cysteine in 0.4 M Citrate buffer, pH 5.5, using Z-FR-AFC as the cleavage substrate. Cathepsin H was prepared in an assay buffer of 10 mM L-cysteine in 0.15 M PBS buffer, pH 6.8, using L-R-AFC as the cleavage substrate. Cathepsin D was prepared in an assay buffer of 0.15 M PBS, pH 7.1, using Z-RGFFP-AFC as the cleavage substrate. Trypsin was prepared in an assay buffer of 0.15 M PBS, pH 8.0, supplemented with 100 mM CaCl2 and with Z-R-AFC as the cleavage substrate. Enzyme was incubated so that it was at least 50 times less than the concentration of substrate in order to insure saturating conditions.
# Cathepsin L = Cathepsin L (Homo sapiens, UniProt P07711); assay: Selectivity test (Steps VI and IX), Cathepsin L; type: biochemical; settings: inhibitor 3 X 10^-10 M; pH 5.5, substrate Z-FR-AFC; 0.0003 µM
# Sequence of Cathepsin L (P07711 114-333): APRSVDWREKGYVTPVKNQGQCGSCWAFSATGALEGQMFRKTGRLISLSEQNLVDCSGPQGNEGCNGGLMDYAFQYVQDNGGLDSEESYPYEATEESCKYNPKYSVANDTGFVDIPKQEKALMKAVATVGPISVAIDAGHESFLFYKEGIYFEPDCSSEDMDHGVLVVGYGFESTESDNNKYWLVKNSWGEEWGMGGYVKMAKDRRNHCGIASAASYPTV
# Experimental: as §3, §4, §5, §6, §7
# Trypsin = assay: Selectivity test (Steps VI and IX), Trypsin; type: biochemical, human; settings: inhibitor 3 X 10^-10 M; pH 8.0, substrate Z-R-AFC; 0.0003 µM
# Experimental: as §3, §4, §5, §6, §7
# Taenia crassiceps cysts = assay: Short-term protection of BALB/c mice from cysticercosis infection; type: in vivo
# BALB/c mice = assay: Observation of side effects in treated mice; type: in vivo
# [3] = system: normal BALB/c mouse splenocytes; assay: Splenocyte proliferation (3H-thymidine incorporation) with or without Con-A; type: cell-based
compound,measurement,setting,value
C[C@H](NC(=O)[C@H](Cc1ccccc1)NC(=O)OCc1ccccc1)C(=O)N[C@@H](CCCNC(=N)N)C(=O)Nc1ccc2c(C(F)(F)F)cc(=O)oc2c1 [Z-FAR-AFC] (Cbz-Phe-Ala-Arg-{AFC}),cleavage of AFC substrate (Vmax),Taenia solium crude mix,most cleaved
"N=C(N)NCCC[C@H](NC(=O)[C@H](Cc1ccccc1)NC(=O)OCc1ccccc1)C(=O)Nc1ccc2c(C(F)(F)F)cc(=O)oc2c1 [Z-FR-AFC, Z-Phe-Arg-AFC, reference compound] (Cbz-Phe-Arg-{AFC})",cleavage of AFC substrate (Vmax),[1],cleaved
same,cleavage of AFC substrate (Vmax),[1]; listed as Z-Phe-Arg-AFC,highest Vmax
same,cleavage of AFC substrate (Vmax),Taenia solium crude mix,most cleaved
CC(C)C[C@H](NC(=O)[C@@H](NC(=O)OCc1ccccc1)C(C)C)C(=O)N[C@@H](CCCNC(=N)N)C(=O)Nc1ccc2c(C(F)(F)F)cc(=O)oc2c1 [Z-VLR-AFC] (Cbz-Val-Leu-Arg-{AFC}),cleavage of AFC substrate (Vmax),Taenia solium crude mix,most cleaved
C[C@H](N)C(=O)N1CCC[C@H]1C(=O)Nc1ccc2c(C(F)(F)F)cc(=O)oc2c1 [AP-AFC] (H-Ala-Pro-{AFC}),cleavage of AFC substrate (Vmax),Taenia solium crude mix,most cleaved
"CC(C)C[C@@H](/C=C/S(C)(=O)=O)NC(=O)[C@H](CC(C)C)NC(=O)[C@H](CC(C)C)NC(=O)OCc1ccccc1 [Z-LLL-VS, Z-Leu-Leu-Leu-vinylsulfone]",ranking by EC100,[2],top inhibitors
C[C@H](NC(=O)OCc1ccccc1)C(=O)N[C@@H](C)C(=O)N[C@@H](CCCCN)C(=O)Nc1ccc2c(C(F)(F)F)cc(=O)oc2c1 [Z-AAK-AFC] (Cbz-Ala-Ala-Lys-{AFC}),cleavage of AFC substrate (Vmax),Taenia solium crude mix,most cleaved
"CC(C)C[C@H](NC(=O)[C@H](CC(C)C)NC(=O)[C@H](CC(C)C)NC(=O)OCc1ccccc1)C(=O)CF [Z-LLL-FMK, Z-Leu-Leu-Leu-fluoromethylketone] (Cbz-Leu-Leu-Leu-CH2F)",% Inhibition of T. solium CP in vitro,[2],100%
same,ranking by EC100,[2],top inhibitors
same,% inhibition,T. solium (cysteine),98%
same,% inhibition,Cathepsin L,almost half of the inhibition of the Taenia solium cysteine protease
same,% inhibition,Trypsin,0%
same,% Therapeutic protection of BALB/c mice,Taenia crassiceps cysts; inhibitor treatment began two weeks after infection,60%
same,side effects in treated animals,BALB/c mice; long or short-term period,only negligible side effects
same,side effects in treated mice,BALB/c mice; long-term studies,no side effects
same,proliferative response (3H-thymidine incorporation),[3]; inhibitor alone,do not induce a proliferative response
same,toxicity to splenocytes in vitro,[3]; preliminary results,nontoxic
"Leu-Phe-Ketoamide-Pyridyl [K-Pyr, reference compound]",% Inhibition of T. solium CP in vitro,[2],80%
same,% Prophylactic protection of BALB/c mice,"Taenia crassiceps cysts; pre-injected two days, 10 T. crassiceps cysts/mouse, dosed daily four weeks, cysts counted after one month",40%
